Assay results: patent US12697349B2, “Compositions and methods for treating RAS-mutant cancers” (MEMORIAL SLOAN KETTERING CANCER CENTER, priority 2019, dated 2026)

Legend:
[1] = system: MIAPaCa-2 (KRAS^G12C) and PSN1 (KRAS^G12R) pancreatic cancer cell lines; test: Drug combination growth inhibition and synergy analysis (CompuSyn, Combination Index); assay type: cell-based, human; details: KRAS-mutant pancreatic cancer cells MIAPaCa-2 and PSN1
Text: Data presented as mean of three independent experiments (n=3). […] Each CI score represents data from at least three independent experiments.
CompuSyn software (Version 1.0) (http://www.combosyn.com), which is based on the Median-Effect Principle and the Combination Index-Isobologram Theorem was used to analyze drug synergism. Combination index (CI) values CI>1 indicates antagonism; CI=0.75-1.25 indicates additive effects; and <1 indicates synergism. Each GI (Growth inhibition) or CI score represents data from at least three independent experiments.

[2] = system: mPDAC cells; test: In vitro growth inhibition by auranofin, CellTiter-Glo viable cell numbers; assay type: cell-based, murine; details: 72 hr, increasing doses, normalized to DMSO-treated cells
Method: (§1) Relative proliferation was calculated by measuring viable cell numbers, and normalizing to the viable cell numbers of DMSO-treated cells, which were set to 1. Relative proliferation was then plotted as a function of auranofin concentration and fit to an exponential curve.
(§2) Proliferation assays. Competitive proliferation assays using shRNAs in TRMPV-Neo vector (with miR-30 or miR-E backbone) were performed as described previously (Huang et al., Genes Dev. 28(16): 1800-1814 (2014)). Assays for in vitro growth inhibition by auranofin or piperlongumine were performed by counting the viable cell numbers using CellTiter-Glo Luminescent Cell Viability Assay (Promega) after incubation of cells in the presence of increasing concentrations of auranofin or piperlongumine for 72 hr. Proliferation rates were calculated by dividing viable cell numbers at 72 hr by the viable cell numbers at 0 hr. Relative proliferation rates were calculated by normalizing to the proliferation rate of vehicle-treated cells.
Auranofin is an inhibitor of enzymatic activity of TXNRD1 (See Gromer et al., J Biol Chem 273(32): 20096-20101). Myricetin, manumycin A and protoporphyrin IX are also inhibitors of enzymatic activity of TXNRD1. mPDAC cells were treated with the TXNRD1 inhibitor auranofin or DMSO for 72 hr, and viability was measured. DMSO treatment served as a negative control causing a lack of growth inhibition. […]

[3] = system: KRas^G12D; p53^-/- pancreatic cancer organoid tumors; test: In vivo drug treatment, KRas^G12D; p53^-/- pancreatic cancer organoids transplanted into the pancreas; set-up: species or system mice; details: 10 mg/kg, one per day, 5 days per week, intraperitoneal, 1 week, versus vehicle
Method: KRas^G12D; p53^−/− organoids were transplanted in recipient mice, and the mice were treated with vehicle only or auranofin (n=3-4) for 1 week. Tumor weights were measured and plotted.
(§3) In vivo drug treatment experiments. For auranofin treatment trials, 16 mg auranofin was first solved in 4 mL ethanol, and then diluted with 12 mL PBS to a final concentration of 1 mg/ml. Mice were given daily auranofin (10 mg/kg) or a similar volume of vehicle by intraperitoneal injection. The sick animals were sacrificed and pancreatic tissues and tumors were used for further analysis.
(§4) Growth inhibitory effects of pharmacological TXNRD1 inhibition was also examined in additional murine PDAC models generated by transplanting KRas^G12D; p53^−/− pancreatic cancer organoid lines into the pancreas of recipient mice. Mice were treated either with vehicle only, acting as a negative control, or auranofin. […] Thus, TXNRD1 is required for the maintenance of KRAS-mutant tumors and dependency in vivo.

[4] = system: MIAPaCa-2 (KRAS mutant); test: In vivo drug treatment, human xenograft model (KRAS mutant); set-up: species or system mice; details: auranofin 10 mg/kg intraperitoneal, 2 weeks, versus vehicle
Method: MIAPaCa-2 (KRAS mutant) or Colo357 (KRAS wild-type) organoids were transplanted into the pancreases of recipient mice. The mice were treated with vehicle only or auranofin (n=5) for 2 weeks. Tumor weights were measured and plotted.
as §3, §4

[5] = system: human pancreatic cancer cell lines (KRAS mutant and wild-type KRAS); test: In vitro growth inhibition by auranofin or piperlongumine in a panel of pancreatic cancer cell lines; assay type: cell-based
Method: as §1, with “curve. L3.3, Colo357, and BXPC3 have wild-type KRAS, and rest of the cell lines harbor a KRAS mutation.” for “curve.”
Cancer cells harboring different KRAS mutations (G12C, G12D, G12V) or wild-type allele were assayed. Relative proliferation was calculated by measuring viable cell numbers, and normalizing to the viable cell numbers of DMSO-treated cells, which were set to 1. Relative proliferation was then plotted as a function of auranofin concentration and fit to an exponential curve.
as §2
Since the screening system discussed above and FIGS. 1A-3B was driven by mutant Kras, p53 loss and Myc overexpression, whether alterations in either gene could dictate sensitivity to TXNRD1 inhibition was investigated. Twelve pancreatic cancer cell lines were treated with increasing concentration of auranofin or DMSO. Among the cell lines used in this experiment L3.3, Colo357, and BXPC3 have wild-type KRAS. The cell lines PANC0327, MIAPaCa-2, PANC0213, ASPC1, 8898, CFPAC-1, L3.6pl, PANC1 and SU8686 harbored KRAS mutations.
To understand whether the observed difference between sensitivities of wild-type KRAS cells and KRAS mutant cells, was statistically significant, the IC50 data of the relative sensitivity of human PDAC cell lines to TXNRD1 inhibition by auranofin was compared. […] To understand the effect of KRAS mutations (G12C, G12D, G12V) on auranofin sensitivity, human pancreatic cancer cells harboring different KRAS mutations (G12C, G12D, G12V) or wild-type were treated with another TXNRD1 inhibitor piperlongumine.

Row | SMILES | antiproliferative effect [1] | growth inhibition of mPDAC cells (relative proliferation) [2] | tumor growth (tumor weights) [3] | tumor growth inhibition (tumor weights) [4] | correlation of anti-proliferative response (IC50) with KRAS mutational status ([5]; human PDAC cell lines, n=12) | correlation of response (IC50) with p53 mutational status or MYC mRNA expression ([5]; human pancreatic cancer cell lines, n=9) | sensitivity to auranofin, KRAS mutant versus wild-type KRAS cells ([5]; twelve pancreatic cancer cell lines, 72 hours, increasing concentration) | sensitivity to piperlongumine, KRAS mutant versus wild-type KRAS cells ([5]; cells with KRAS G12C, G12D, G12V or wild-type, 72 hours)
1 | CC(=O)OC[C@H]1O[C@@H]([S-])[C@H](OC(C)=O)[C@@H](OC(C)=O)[C@@H]1OC(C)=O.CCP(CC)CC.[Au+] [auranofin] | antiproliferative effects | inhibited growth of mPDAC cells at submicromolar concentration | triggered a delay in Kras-mutant tumor growth | growth inhibitory effects of pharmacological TXNRD1 inhibition was found | significant correlation | no significant correlation | KRAS mutant cells were generally more sensitive to auranofin than the wild-type KRAS cells | 
2 | COc1cc(/C=C/C(=O)N2CCC=CC2=O)cc(OC)c1OC [piperlongumine] |  |  |  |  |  |  |  | KRAS mutant cells were more sensitive to piperlongumine than the wild-type KRAS cells
